≈ marks a conversion by molar mass, not a printed value.
Columns and labels:
Liver microsome [1] = test: Drug level in human liver microsomes treated with 10 uM 3-Amino-N-cyclopentyl-6-(m-tolyl)pyrazine-2-carboxamide assessed as compound formation after 60 mins presence of NADPH regenerating system by LC-MS method; assay type: ADME; conditions: 1 h
Liver microsome [2] = test: Drug level in human liver microsomes treated with 10 uM 3-Amino-N-cyclopentyl-6-(m-tolyl)pyrazine-2-carboxamide assessed as compound formation after 60 mins presence of NADPH regenerating system and UDPGA by LC-MS method; assay type: ADME; conditions: 1 h
[3] = Toxicity in late-stage human african trypanosomiasis patient assessed as mortality rate following 10-day schedule; assay type: organism-based; conditions: in vivo
Plasmodium falciparum = test: Anti-parasitic activity against chloroquine and pyrimethamine resistant Plasmodium falciparum K1 erythrocytic stages infected in human erythrocytes incubated for 48 hrs by [3H]-hypoxanthine incorporation assay; assay type: functional, organism-based
[4] = Partition coefficient, logD of the compound at pH 7.4 by HPLC method; assay type: physicochemical; conditions: octanol/water
[5] = Selectivity index, ratio of cytotoxic IC50 for rat L6 cells to EC50 for anti-parasitic activity against Trypanosoma brucei rhodesiense STIB 900; assay type: toxicity, cell-based; conditions: read-out: Ratio IC50/EC50
serum albumin = serum albumin (Homo sapiens, UniProt P02768); test: Binding affinity to human serum albumin by chromatographic method; assay type: ADME; conditions: read-out: PB (converted)
Sequence of serum albumin (P02768 whole entry): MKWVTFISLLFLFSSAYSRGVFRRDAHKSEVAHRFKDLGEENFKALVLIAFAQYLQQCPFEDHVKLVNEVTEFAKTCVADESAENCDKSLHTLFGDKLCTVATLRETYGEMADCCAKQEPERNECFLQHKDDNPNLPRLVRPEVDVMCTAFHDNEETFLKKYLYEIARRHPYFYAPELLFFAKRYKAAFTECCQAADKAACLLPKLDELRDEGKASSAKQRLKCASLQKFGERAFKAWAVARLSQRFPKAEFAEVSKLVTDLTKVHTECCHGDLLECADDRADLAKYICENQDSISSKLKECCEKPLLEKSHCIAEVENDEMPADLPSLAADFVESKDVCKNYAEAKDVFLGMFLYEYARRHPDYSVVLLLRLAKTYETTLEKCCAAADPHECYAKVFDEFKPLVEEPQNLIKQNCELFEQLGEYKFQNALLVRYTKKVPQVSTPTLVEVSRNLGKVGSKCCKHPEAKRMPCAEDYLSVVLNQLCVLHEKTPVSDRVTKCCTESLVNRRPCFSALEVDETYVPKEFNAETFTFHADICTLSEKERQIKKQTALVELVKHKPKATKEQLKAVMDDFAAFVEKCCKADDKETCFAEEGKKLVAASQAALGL

[6] = Stability assessed as degradation half life; assay type: physicochemical
[7] = Toxicity against rat L6 cells incubated for 70 hrs by alamar blue dye based assay; assay type: cell-based
[8] = test system: Trypanosoma brucei brucei; test: Anti-parasitic activity against Trypanosoma brucei brucei 427 bloodstream parasites incubated for 48 hrs by alamar blue dye based assay; assay type: functional, organism-based; conditions: Trypanosoma brucei, 427, 48 h
[9] = Selectivity index, ratio of cytotoxic IC50 for HEK293 cells to EC50 for anti-parasitic activity against Trypanosoma brucei brucei 427 bloodstream parasites; assay type: toxicity, cell-based; conditions: human, read-out: Ratio IC50/EC50
[10] = Ratio of drug concentration in brain to plasma of Swiss mouse at normalized dose of 1 mg/kg, iv after 5 mins by LC-MS method; assay type: ADME, organism-based; conditions: read-out: BPR
Trypanosoma cruzi = test: Anti-parasitic activity against Trypanosoma cruzi Tulahuen C2C4 trypomastigotes infected rat L6 cells incubated for 96 hrs by CPRG/nonidet substrate based […]; assay type: functional, organism-based; conditions: Tulahuen C2C4, L6, 96 h
[11] = Intrinsic clearance in human liver microsomes assessed per mg protein at pH 7.4 at 0.5 uM in presence of NADPH regenerating system by LC-MS method; assay type: ADME; conditions: read-out: CLH
Leishmania donovani = test: Anti-parasitic activity against Leishmania donovani MHOM/ET/67/L82 axenic amastigotes incubated for 70 hrs by alamar blue dye based assay; assay type: functional, organism-based; conditions: MHOM/ET/67/L82, 70 h
Brain = test: Drug concentration in Swiss mouse brain at normalized dose of 1 mg/kg, iv after 5 mins by LC-MS method; assay type: ADME, organism-based; conditions: in vivo
[12] = test system: Trypanosoma brucei rhodesiense; test: Anti-parasitic activity against Trypanosoma brucei rhodesiense STIB 900 trypomastigotes incubated for 70 hrs by alamar blue dye based assay; assay type: functional, organism-based; conditions: STIB 900, 70 h
[13] = Kinetic solubility in pH 2.0 0.01M HCl buffer by nephelometry; assay type: physicochemical; conditions: read-out: Kinetic_solubility
[14] = Kinetic solubility in pH 6.5 phosphate buffer by nephelometry; assay type: physicochemical; conditions: read-out: Kinetic_solubility
Liver microsome [15] = test: Drug level in human liver microsomes treated with 10 uM 3-Amino-N-cyclopentyl-6-(m-tolyl)pyrazine-2-carboxamide assessed as compound formation after 60 mins absence of NADPH regenerating system and UDPGA by LC-MS method; assay type: ADME; conditions: 1 h
Liver microsome [16] = test: Drug metabolism in human liver microsomes assessed as oxygenated metabolite formation after 60 mins at 10 uM presence of NADPH regenerating system by LC-MS method; assay type: ADME; conditions: 1 h
[17] = Drug metabolism in human liver microsomes after 60 mins at 10 uM presence of NADPH regenerating system by LC-MS method; assay type: ADME; conditions: read-out: Drug metabolism
[18] = Drug stability in human liver microsomes assessed as parent compound loss after 60 mins at 10 uM absence of NADPH regenerating system and UDPGA by LC-MS method; assay type: ADME; conditions: read-out: Drug degradation
Liver microsome [19] = test: Drug metabolism in human liver microsomes assessed as oxygenated metabolite formation after 60 mins at 10 uM presence of NADPH regenerating system and UDPGA by LC-MS method; assay type: ADME; conditions: 1 h
Liver microsome [20] = test: Drug metabolism in human liver microsomes assessed as N-oxide metabolite formation after 60 mins at 10 uM absence of NADPH regenerating system and UDPGA by LC-MS method; assay type: ADME; conditions: 1 h
Mus musculus = test: Blood clearance in Swiss mouse at 1.8 mg/kg, iv by LC-MS method relative to hepatic blood flow; assay type: ADME, organism-based, Liver; conditions: in vivo
[21] = Apparent half life in Swiss mouse at 1.8 mg/kg, iv by LC-MS method; assay type: ADME, organism-based; conditions: in vivo, read-out: t1/2(app) (converted)
[22] = Blood clearance in Swiss mouse at 1.8 mg/kg, iv by LC-MS method; assay type: ADME, organism-based; conditions: whole blood
[23] = Volume of distribution in Swiss mouse at 1.8 mg/kg, iv by LC-MS method; assay type: ADME, organism-based; conditions: in vivo

| SMILES | Drug metabolism (Liver microsome [1]) | Drug metabolism (Liver microsome [2]) | EC50 (Plasmodium falciparum) | logD [4] | selectivity ratio [5] | fraction unbound (serum albumin) | half-life [6] | IC50 at 70 h [7] | EC50 [8] | selectivity ratio [9] | EC50 (Trypanosoma cruzi) | microsomal CLint at 0.5 µM [11] | EC50 (Leishmania donovani) | EC50 [12] | solubility kinetic [13] | solubility kinetic [14] | other results |
| --- | --- | --- | --- | --- | --- | --- | --- | --- | --- | --- | --- | --- | --- | --- | --- | --- | --- |
| Nc1ncc(-c2cccc(C(=O)O)c2)nc1C(=O)NC1CCCC1 | metabolite_detected | metabolite_detected | – | – | – | – | – | – | – | – | – | – | – | – | – | – | – |
| Nc1nc(N)nc(Nc2ccc([As]3SCC(CO)S3)cc2)n1 (stereo not drawn) [MELARSOPROL] | – | – | – | – | – | – | – | – | – | – | – | – | – | – | – | – | mortality at 10 day [3]: 5.9% |
| Nc1ncc(-c2cccc(CO)c2)nc1C(=O)NC1CCCC1 | metabolite_detected | metabolite_detected | – | – | – | – | – | – | – | – | – | – | – | – | – | – | – |
| Cc1cccc(-c2cnc(N)c(C(=O)NC3=CCCC3)n2)c1 | metabolite_detected | metabolite_detected | – | – | – | – | – | – | – | – | – | – | – | – | – | – | – |
| Nc1ncc(-c2ccccc2)nc1C(=O)NC1CCCC1 | – | – | 6.1 µM | 4.1 | 140 | 0.042 | 9 min | 20 µM | 0.26 µM | > 368 | 13 µM | 198 µL/min/mg | > 10 µM | 0.14 µM | 6.3 µg/mL (≈ 22.3 µM) | 25 µg/mL (≈ 88.5 µM) | Kp at 5 min [10]: 5.7; Drug uptake (Brain): 1192.3 ng/g |
| Cc1cccc(-c2c[n+]([O-])c(N)c(C(=O)NC3CCCC3)n2)c1 | metabolite_detected | metabolite_detected | – | – | – | – | – | – | – | – | – | – | – | – | – | – | Drug metabolism (Liver microsome [15]): metabolite_detected |
| CCC(C)NC(=O)c1nc(-c2ccc(F)cc2)cnc1N (stereo not drawn) | – | – | 9 µM | 4 | 61 | 0.058 | 15 min | 17 µM | 0.4 µM | > 206 | 17 µM | 119 µL/min/mg | > 10 µM | 0.22 µM | 6.3 µg/mL (≈ 21.9 µM) | 50 µg/mL (≈ 173 µM) | Kp at 5 min [10]: 5.1; Drug uptake (Brain): 1069.5 ng/g |
| CCC(CC)NC(=O)c1nc(-c2ccc(F)cc2C#N)cnc1N | – | – | 2.9 µM | 4.2 | 230 | 0.029 | 26 min | 20 µM | 0.1 µM | 850 | 19 µM | 66 µL/min/mg | > 10 µM | 0.089 µM | < 1.6 µg/mL | 1.6 µg/mL (≈ 4.89 µM) | – |
| Cc1cccc(-c2cnc(N)c(C(=O)NC3CCCC3)n2)c1 | – | – | 4.9 µM | 4.6 | 1790 | 0.023 | 7 min | 42 µM | 0.035 µM | 2380 | 17 µM | 266 µL/min/mg | > 10 µM | 0.024 µM | 3.1 µg/mL (≈ 10.5 µM) | 3.1 µg/mL (≈ 10.5 µM) | Drug metabolism (Liver microsome [16]): metabolite_detected; metabolised at 1 h, 10 µM [17]: 92%; metabolised at 1 h, 10 µM [18]: 6%; Drug metabolism (Liver microsome [19]): metabolite_detected; Drug metabolism (Liver microsome [20]): metabolite_detected |
| CCC(CC)NC(=O)c1nc(-c2ccc(F)cc2)cnc1N | – | – | 7.6 µM | 4.4 | 540 | 0.036 | 21 min | 28 µM | 0.08 µM | 1024 | 15 µM | 84 µL/min/mg | > 10 µM | 0.053 µM | 3.1 µg/mL (≈ 10.3 µM) | 3.1 µg/mL (≈ 10.3 µM) | CL (Mus musculus): 60%; half-life [21]: 546 min; clearance [22]: 69 mL/min/kg; Vd [23]: 14.7 L/kg |
